Results from patent publication US9833497B2, “Human originated EGF domain proteins and use of the same” (CHENGDU SOURCEBIO LIMITED-LIABILITY COMPANY, priority 2013, dated 2017).

Columns and labels:
Assay type in all cases: cell-based
[1] = system: E. coli DH5α; assay: Antibacterial activity: MIC and growth curve against E. coli DH5α in 96-well plate; settings: minimal inhibitory concentration against E. coli DH5α; 96-well plate, 5×10^5 CFU/mL, 37° C., judged after 8 h
In short: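 Log-phase bacteria (OD600 ~0.5) resuspended in LB at 5×10^5 CFU/mL, exposed to recombinant protein at 50, 25, 12.5 μg/mL final in triplicate, 37 °C shaking at 175 rpm. OD600 read every 30 min; MIC is lowest concentration showing no growth.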

[2] = system: E. coli BL21; assay: MIC against Gram-negative bacteria: E. coli BL21; settings: E. coli BL21, 5×10^5 CFU/mL
In short: (§1)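 Growth inhibition by human EGF domain proteins was scored in LB liquid culture seeded at 5×10^5 CFU/mL. Protein was applied as a two-fold dilution series in triplicate, with shaking incubation at 37° C; MIC is the lowest concentration giving no growth.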

[3] = system: Pseudomonas aeruginosa; assay: MIC against Gram-negative bacteria: Pseudomonas aeruginosa; settings: 5×10^5 CFU/mL; for MIC against P. aeruginosa: Pseudomonas aeruginosa
In short: as §1

[4] = system: Klebsiella pneumonia; assay: MIC against Gram-negative bacteria: Klebsiella pneumonia; settings: 5×10^5 CFU/mL; for MIC against K. pneumonia: Klebsiella pneumonia
In short: as §1

[5] = system: Enterobacter cloacae; assay: MIC against Gram-negative bacteria: Enterobacter cloacae; settings: 5×10^5 CFU/mL; for MIC against E. cloacae: Enterobacter cloacae
In short: as §1

[6] = system: Aeromonas hydrophila; assay: MIC against Gram-negative bacteria: Aeromonas hydrophila; settings: 5×10^5 CFU/mL; for MIC against A. hydrophila: Aeromonas hydrophila
In short: as §1

[7] = system: Citrobacter diversus; assay: MIC against Gram-negative bacteria: Citrobacter diversus; settings: 5×10^5 CFU/mL; for MIC against C. diversus: Citrobacter diversus
In short: as §1

[8] = system: Moraxella catarrhalis; assay: MIC against Gram-negative bacteria: Moraxella catarrhalis; settings: 5×10^5 CFU/mL; for MIC against M. catarrhalis: Moraxella catarrhalis
In short: as §1

[9] = system: Proteus mirabilis; assay: MIC against Gram-negative bacteria: Proteus mirabilis; settings: 5×10^5 CFU/mL; for MIC against P. mirabilis: Proteus mirabilis
In short: as §1

[10] = system: Proteus vulgaris; assay: MIC against Gram-negative bacteria: Proteus vulgaris; settings: 5×10^5 CFU/mL; for MIC against P. vulgaris: Proteus vulgaris
In short: as §1

[11] = system: Serratia marcescens; assay: MIC against Gram-negative bacteria: Serratia marcescens; settings: 5×10^5 CFU/mL; for MIC against S. marcescens: Serratia marcescens
In short: as §1

[12] = P. aeruginosa, 10 h cultivation at 37° C.
[13] = K. pneumonia, 10 h cultivation at 37° C.
[14] = E. cloacae, 10 h cultivation at 37° C.
[15] = A. hydrophila, 10 h cultivation at 37° C.
[16] = C. diversus, 10 h cultivation at 37° C.
[17] = M. catarrhalis, 10 h cultivation at 37° C.
[18] = P. mirabilis, 10 h cultivation at 37° C.
[19] = P. vulgaris, 10 h cultivation at 37° C.
[20] = S. marcescens, 10 h cultivation at 37° C.

Substance | MIC [1] | MIC (μg/mL) E. coli BL21 ([2]; 10 h cultivation at 37° C.) | MIC (μg/mL) P. aeruginosa [3, 12] | MIC (μg/mL) K. pneumonia [4, 13] | MIC (μg/mL) E. cloacae [5, 14] | MIC (μg/mL) A. hydrophila [6, 15] | MIC (μg/mL) C. diversus [7, 16] | MIC (μg/mL) M. catarrhalis [8, 17] | MIC (μg/mL) P. mirabilis [9, 18] | MIC (μg/mL) P. vulgaris [10, 19] | MIC (μg/mL) S. marcescens [11, 20] | also measured
PRT754 (IQDLCAMEDHNCEQLCVNVPGSFVCQCYSGYALAEDGKRCV; listed as Homo sapiens) | 25 µg/mL | 12.5 µg/mL | 50 µg/mL | 25 µg/mL | 12.5 µg/mL | 25 µg/mL | 50 µg/mL | 25 µg/mL | 12.5 µg/mL | 50 µg/mL | 25 µg/mL | 
PRT1372 (GSRRCPGDCRGHGLCEDGVCVCDAGYSGEDC; listed as Homo sapiens) | 12.5 µg/mL |  |  |  |  |  |  |  |  |  |  | MIC against E. coli BL21 ([2]; 10 h cultivation at 37° C.): 25 µg/mL; MIC against P. aeruginosa ([3]; 10 h cultivation at 37° C.): 12.5 µg/mL; MIC against K. pneumonia ([4]; 10 h cultivation at 37° C.): 25 µg/mL; MIC against E. cloacae ([5]; 10 h cultivation at 37° C.): 12.5 µg/mL; MIC against A. hydrophila ([6]; 10 h cultivation at 37° C.): 25 µg/mL; MIC against C. diversus ([7]; 10 h cultivation at 37° C.): 12.5 µg/mL; MIC against M. catarrhalis ([8]; 10 h cultivation at 37° C.): 25 µg/mL; MIC against P. mirabilis ([9]; 10 h cultivation at 37° C.): 12.5 µg/mL; MIC against P. vulgaris ([10]; 10 h cultivation at 37° C.): 25 µg/mL; MIC against S. marcescens ([11]; 10 h cultivation at 37° C.): 12.5 µg/mL
PRT174 (CASSPCANGGTCRDGVNDFSCTCPPGYTGRNC; listed as Homo sapiens) | 50 µg/mL | 12.5 µg/mL | 25 µg/mL | 50 µg/mL | 25 µg/mL | 12.5 µg/mL | 25 µg/mL | 50 µg/mL | 12.5 µg/mL | 50 µg/mL | 12.5 µg/mL | 
PRT1303 (HGLCRSVEKDSVVCECRPGWTGPLCD; listed as Homo sapiens) | 12.5 µg/mL |  |  |  |  |  |  |  |  |  |  | MIC against E. coli BL21 ([2]; 96-well plate, 37° C., 10 h): 50 µg/mL; MIC against P. aeruginosa ([3]; 96-well plate, 37° C., 10 h): 12.5 µg/mL; MIC against K. pneumonia ([4]; 96-well plate, 37° C., 10 h): 50 µg/mL; MIC against E. cloacae ([5]; 96-well plate, 37° C., 10 h): 12.5 µg/mL; MIC against A. hydrophila ([6]; 96-well plate, 37° C., 10 h): 50 µg/mL; MIC against C. diversus ([7]; 96-well plate, 37° C., 10 h): 12.5 µg/mL; MIC against M. catarrhalis ([8]; 96-well plate, 37° C., 10 h): 12.5 µg/mL; MIC against P. mirabilis ([9]; 96-well plate, 37° C., 10 h): 25 µg/mL; MIC against P. vulgaris ([10]; 96-well plate, 37° C., 10 h): 12.5 µg/mL; MIC against S. marcescens ([11]; 96-well plate, 37° C., 10 h): 25 µg/mL
PRT425 (DVDECAMGTHTCQPGFLCQNTKGSFYCQARQRCMDGFLQDPEGNCV; listed as Homo sapiens) | 12.5 µg/mL |  |  |  |  |  |  |  |  |  |  | MIC ([2]; 10 h cultivation at 37° C.): 25 µg/mL; MIC [3, 12]: 50 µg/mL; MIC [4, 13]: 25 µg/mL; MIC [5, 14]: 12.5 µg/mL; MIC [6, 15]: 25 µg/mL; MIC [7, 16]: 50 µg/mL; MIC [8, 17]: 12.5 µg/mL; MIC [9, 18]: 50 µg/mL; MIC [10, 19]: 12.5 µg/mL; MIC [11, 20]: 50 µg/mL
PRT866 (CQCHGHAARCAARARPPRCHCRHHTTGPGCESCRPSHRDWPWRPATPRHPHPCLP; listed as Homo sapiens) | 25 µg/mL | 12.5 µg/mL | 25 µg/mL | 12.5 µg/mL | 12.5 µg/mL | 12.5 µg/mL | 12.5 µg/mL | 12.5 µg/mL | 12.5 µg/mL | 25 µg/mL | 12.5 µg/mL | 
PRT788 (WGPHCTSRCQCKNGALCNPITGACHCAAGFRGWRCE; listed as Homo sapiens) | 50 µg/mL | 100 µg/mL | 50 µg/mL | 25 µg/mL | 12.5 µg/mL | 25 µg/mL | 50 µg/mL | 25 µg/mL | 12.5 µg/mL | 50 µg/mL | 50 µg/mL | 
